This passage reports Ki results from ChEMBL document CHEMBL2074375, “Comparison between isopropyl unoprostone and latanoprost by prostaglandin E(2)induction, affinity to prostaglandin transporter, and intraocular metabolism” (Exp Eye Res, 2002).

The target in the test is Solute carrier organic anion transporter family member 2A1 (Homo sapiens, UniProt Q92959). Nature of the test: TP_TRANSPORTER: inhibition of PGE1 uptake (PGE1: 0.0004 uM) in PGT-expressing HeLa cells. The class given is functional, cell-based.

The structures appear in SMILES notation.

The term Ki denotes the equilibrium dissociation constant of an inhibitor or competing ligand from its target. The compound `CC(C)OC(=O)CCC/C=C\C[C@@H]1[C@@H](CC[C@@H](O)CCc2ccccc2)[C@H](O)C[C@@H]1O` [LATANOPROST] had a Ki greater than 10000 nM.
With `O=C(O)CCC/C=C\C[C@@H]1[C@@H](CC[C@@H](O)CCc2ccccc2)[C@H](O)C[C@@H]1O` [LATANOPROST ACID] the figure was 149 nM.
